According to patent US11130756B2, “[1,2,4]Triazolo[4,3-A]pyridinyl substituted indole compounds” (BRISTOL-MYERS SQUIBB COMPANY, priority 2017, dated 2021):

Legend:
Type in all cases: cell-based
human TLR7 = target: T1, human TLR7 (Homo sapiens, UniProt Q9NYK1); test: TLR7 inhibition reporter assay (HEK-Blue, SEAP); conditions: HEK-Blue cells overexpressing human TLR7, gardiquimod 7.5 μM, 22 hour incubation
T1 construct: host or cells: HEK-Blue cells
T1 sequence (Q9NYK1 27-1049): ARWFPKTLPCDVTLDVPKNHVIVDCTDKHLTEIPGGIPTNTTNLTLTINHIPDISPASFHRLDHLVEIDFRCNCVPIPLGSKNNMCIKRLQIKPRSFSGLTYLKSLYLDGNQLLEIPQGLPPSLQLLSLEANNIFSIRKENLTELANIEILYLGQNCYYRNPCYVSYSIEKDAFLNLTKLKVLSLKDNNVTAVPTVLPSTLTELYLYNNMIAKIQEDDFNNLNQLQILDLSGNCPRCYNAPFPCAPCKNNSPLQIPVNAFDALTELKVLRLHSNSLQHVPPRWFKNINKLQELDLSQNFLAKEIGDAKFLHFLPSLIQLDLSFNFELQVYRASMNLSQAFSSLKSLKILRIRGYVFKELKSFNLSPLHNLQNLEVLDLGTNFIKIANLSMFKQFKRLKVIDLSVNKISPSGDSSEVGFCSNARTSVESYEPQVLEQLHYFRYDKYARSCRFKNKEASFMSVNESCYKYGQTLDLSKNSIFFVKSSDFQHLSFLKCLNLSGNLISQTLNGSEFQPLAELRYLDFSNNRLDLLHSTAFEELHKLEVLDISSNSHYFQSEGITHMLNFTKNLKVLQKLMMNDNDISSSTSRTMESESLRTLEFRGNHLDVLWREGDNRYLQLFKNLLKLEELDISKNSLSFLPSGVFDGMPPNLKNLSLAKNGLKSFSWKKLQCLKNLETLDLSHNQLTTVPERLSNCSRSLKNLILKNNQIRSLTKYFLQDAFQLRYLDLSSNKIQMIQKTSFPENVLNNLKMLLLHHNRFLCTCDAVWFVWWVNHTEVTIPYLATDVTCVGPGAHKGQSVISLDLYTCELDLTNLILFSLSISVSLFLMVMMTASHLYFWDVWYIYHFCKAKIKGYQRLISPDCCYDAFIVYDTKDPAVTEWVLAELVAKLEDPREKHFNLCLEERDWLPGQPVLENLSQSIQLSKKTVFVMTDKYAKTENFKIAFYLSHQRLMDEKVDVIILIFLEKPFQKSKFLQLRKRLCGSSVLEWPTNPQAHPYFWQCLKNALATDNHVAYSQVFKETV
Method: (§1) TLR7/8/9 Inhibition Reporter Assays
(§2) HEK-Blue™-cells (Invivogen) overexpressing human TLR7, TLR8 or TLR9 receptors were used for screening inhibitors of these receptors using an inducible SEAP (secreted embryonic alkaline phosphatase) reporter gene under the control of the IFN-β minimal promoter fused to five NF-κB and AP-1-binding sites. Briefly, cells are seeded into Greiner 384 well plates (15000 cells per well for TLR7, 20,000 for TLR8 and 25,000 for TLR9) and then treated with test compounds in DMSO to yield a final dose response concentration range of 0.05 nM-50 μM. After a 30 minute compound pre-treatment at room temperature, the cells are then stimulated with a TLR7 ligand (gardiquimod at a final concentration of 7.5 μM), TLR8 ligand (R848 at a final concentration of 15.9 μM) or TLR9 ligand (ODN2006 at a final concentration of 5 nM) to activate NF-κB and AP-1 which induce the production of SEAP. After a 22 hour incubation at 37° C., 5% CO2, SEAP levels are determined with the addition of HEK-Blue™ Detection reagent (Invivogen), a cell culture medium that allows for detection of SEAP, according to manufacturer's specifications. The percent inhibition is determined as the % reduction in the HEK-Blue signal present in wells treated with agonist plus DMSO alone compared to wells treated with a known inhibitor.

human TLR9 = target: T2, human TLR9 (Homo sapiens, UniProt Q9NR96); test: TLR9 inhibition reporter assay (HEK-Blue, SEAP); conditions: HEK-Blue cells overexpressing human TLR9, ODN2006 5 nM, 22 hour incubation
T2 construct: host or cells: HEK-Blue cells
T2 sequence (Q9NR96 26-1032): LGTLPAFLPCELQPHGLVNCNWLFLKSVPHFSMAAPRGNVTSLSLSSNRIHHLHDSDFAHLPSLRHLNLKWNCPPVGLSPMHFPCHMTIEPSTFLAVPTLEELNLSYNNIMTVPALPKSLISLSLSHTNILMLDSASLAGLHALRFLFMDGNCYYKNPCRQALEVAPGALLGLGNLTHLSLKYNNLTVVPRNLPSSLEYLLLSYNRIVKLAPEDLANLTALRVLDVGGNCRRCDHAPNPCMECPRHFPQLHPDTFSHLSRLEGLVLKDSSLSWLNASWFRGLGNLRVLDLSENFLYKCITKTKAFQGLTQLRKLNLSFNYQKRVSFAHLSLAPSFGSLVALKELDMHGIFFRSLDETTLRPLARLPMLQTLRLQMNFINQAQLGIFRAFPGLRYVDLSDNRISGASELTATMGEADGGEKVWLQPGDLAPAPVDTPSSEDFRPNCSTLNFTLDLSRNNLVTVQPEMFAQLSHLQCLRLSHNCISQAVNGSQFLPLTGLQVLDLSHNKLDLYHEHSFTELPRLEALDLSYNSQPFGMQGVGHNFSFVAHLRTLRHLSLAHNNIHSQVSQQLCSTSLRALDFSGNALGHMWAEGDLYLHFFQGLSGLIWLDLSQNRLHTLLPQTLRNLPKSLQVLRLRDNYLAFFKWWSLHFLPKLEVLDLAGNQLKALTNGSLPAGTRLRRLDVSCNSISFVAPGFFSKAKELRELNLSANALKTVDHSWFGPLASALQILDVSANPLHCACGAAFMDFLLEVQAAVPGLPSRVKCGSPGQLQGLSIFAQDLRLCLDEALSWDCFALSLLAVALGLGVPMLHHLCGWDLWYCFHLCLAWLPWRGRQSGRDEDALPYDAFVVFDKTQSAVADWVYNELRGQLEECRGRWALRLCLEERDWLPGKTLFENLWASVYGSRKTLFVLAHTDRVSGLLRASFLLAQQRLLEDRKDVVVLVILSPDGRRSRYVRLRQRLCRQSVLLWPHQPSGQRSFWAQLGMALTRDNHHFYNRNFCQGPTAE
Method: as §1, §2

human TLR8 = target: T3, human TLR8 (Homo sapiens, UniProt Q9NR97); test: TLR8 inhibition reporter assay (HEK-Blue, SEAP); conditions: HEK-Blue cells overexpressing human TLR8, R848 15.9 μM, 22 hour incubation
T3 construct: host or cells: HEK-Blue cells
T3 sequence (Q9NR97 27-1041): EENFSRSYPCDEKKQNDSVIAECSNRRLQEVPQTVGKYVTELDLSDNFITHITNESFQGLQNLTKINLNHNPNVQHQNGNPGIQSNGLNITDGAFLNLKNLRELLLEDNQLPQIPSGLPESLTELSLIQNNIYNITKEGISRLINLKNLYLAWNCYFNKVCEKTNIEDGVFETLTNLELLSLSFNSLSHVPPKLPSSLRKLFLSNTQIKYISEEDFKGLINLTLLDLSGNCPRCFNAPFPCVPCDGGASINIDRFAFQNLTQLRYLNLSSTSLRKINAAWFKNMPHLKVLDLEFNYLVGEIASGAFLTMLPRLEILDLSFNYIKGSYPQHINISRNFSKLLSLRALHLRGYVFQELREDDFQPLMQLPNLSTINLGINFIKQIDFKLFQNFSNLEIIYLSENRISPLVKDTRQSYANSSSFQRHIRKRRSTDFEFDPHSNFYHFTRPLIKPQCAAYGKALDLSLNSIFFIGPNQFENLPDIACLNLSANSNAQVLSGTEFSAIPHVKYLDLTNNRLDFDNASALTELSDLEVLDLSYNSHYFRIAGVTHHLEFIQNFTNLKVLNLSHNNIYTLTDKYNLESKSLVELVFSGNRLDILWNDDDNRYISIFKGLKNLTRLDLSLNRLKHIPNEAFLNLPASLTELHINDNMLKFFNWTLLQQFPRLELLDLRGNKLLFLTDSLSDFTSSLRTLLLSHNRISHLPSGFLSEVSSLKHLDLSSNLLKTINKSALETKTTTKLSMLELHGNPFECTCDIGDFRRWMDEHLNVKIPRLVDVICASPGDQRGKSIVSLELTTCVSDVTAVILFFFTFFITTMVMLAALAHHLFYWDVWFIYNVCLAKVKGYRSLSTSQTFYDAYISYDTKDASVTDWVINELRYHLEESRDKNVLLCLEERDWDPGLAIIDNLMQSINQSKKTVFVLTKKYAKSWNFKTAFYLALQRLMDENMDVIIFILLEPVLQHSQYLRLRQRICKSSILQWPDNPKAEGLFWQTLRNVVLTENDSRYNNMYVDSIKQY
Method: as §1, §2

| SMILES | IC50 (human TLR7) [nM] | IC50 (human TLR9) [nM] | IC50 (human TLR8) [nM] |
| --- | --- | --- | --- |
| COc1cc(-c2[nH]c3ccc(C4CCNCC4)cc3c2C(C)C)cn2cnnc12 [Example 11, 6-(3-isopropyl-5-(piperidin-4-yl)-1H-indol-2-yl)-8-methoxy-[1,2,4]triazolo[4,3-a]pyridine] | 6.2 | 563 | 74 |
| Cc1cc(-c2[nH]c3ccc(C4CCN(CC(=O)N(C)C)CC4)cc3c2C(C)C)cn2cnnc12 [Example 12, 2-(4-(3-isopropyl-2-(8-methyl-[1,2,4]triazolo[4,3-a]pyridin-6-yl)-1H-indol-5-yl)piperidin-1-yl)-N,N-dimethylacetamide] | 1.5 | 1900 | 6.9 |
| CNC(=O)CN1CCC(c2ccc3[nH]c(-c4ccc5nncn5c4)c(C(C)C)c3c2)CC1 [Example 13, 2-(4-(2-([1,2,4]triazolo[4,3-a]pyridin-6-yl)-3-isopropyl-1H-indol-5-yl)piperidin-1-yl)-N-methylacetamide] | 6.8 | 1110 | 98 |
| CC(C)c1c(-c2ccc3nncn3c2)[nH]c2ccc(C3CCN(CC(=O)N(C)C)CC3)cc12 [Example 14, 2-(4-(2-([1,2,4]triazolo[4,3-a]pyridin-6-yl)-3-isopropyl-1H-indol-5-yl)piperidin-1-yl)-N,N-dimethylacetamide] | 31.8 | 222 | 308 |
| CNC(=O)CN1CCC(c2ccc3[nH]c(-c4cn5cnnc5cc4C)c(C(C)C)c3c2)CC1 [Example 15, 2-(4-(3-isopropyl-2-(7-methyl-[1,2,4]triazolo[4,3-a]pyridin-6-yl)-1H-indol-5-yl)piperidin-1-yl)-N-methylacetamide] | 15 | 1100 | 245 |
| CNC(=O)CN1CCC(c2ccc3[nH]c(-c4cc(C)c5nncn5c4)c(C(C)C)c3c2)CC1 [Example 16, 2-(4-(3-isopropyl-2-(8-methyl-[1,2,4]triazolo[4,3-a]pyridin-6-yl)-1H-indol-5-yl)piperidin-1-yl)-N-methylacetamide] | 2 | 2520 | 10.2 |
| CNC(=O)CN1CCC(c2ccc3[nH]c(-c4ccc5nnc(C)n5c4)c(C(C)C)c3c2)CC1 [Example 17, 2-(4-(3-isopropyl-2-(3-methyl-[1,2,4]triazolo[4,3-a]pyridin-6-yl)-1H-indol-5-yl)piperidin-1-yl)-N-methylacetamide] | 44.7 | 2770 | 31.4 |
| Cc1cc2nncn2cc1-c1[nH]c2ccc(C3CCN(CC(=O)N(C)C)CC3)cc2c1C(C)C [Example 18, 2-(4-(3-isopropyl-2-(7-methyl-[1,2,4]triazolo[4,3-a]pyridin-6-yl)-1H-indol-5-yl)piperidin-1-yl)-N,N-dimethylacetamide] | 65.9 | 685 | 715 |
| Cc1nnc2ccc(-c3[nH]c4ccc(C5CCN(CC(=O)N(C)C)CC5)cc4c3C(C)C)cn12 [Example 19, 2-(4-(3-isopropyl-2-(3-methyl-[1,2,4]triazolo[4,3-a]pyridin-6-yl)-1H-indol-5-yl)piperidin-1-yl)-N,N-dimethylacetamide] | 48.6 | 1660 | 29.6 |
| Cc1cc2nncn2cc1-c1[nH]c2ccc(C3CCN(Cc4ncn(C)n4)CC3)cc2c1C(C)C [Example 20, 6-(3-isopropyl-5-(1-((1-methyl-1H-1,2,4-triazol-3-yl)methyl)piperidin-4-yl)-1H-indol-2-yl)-7-methyl-[1,2,4] triazolo[4,3-a]pyridine] | 69.6 | 19600 | 408 |
| Cc1cc(-c2[nH]c3ccc(C4CCN(Cc5ncn(C)n5)CC4)cc3c2C(C)C)cn2cnnc12 [Example 21, 6-(3-isopropyl-5-(1-((1-methyl-1H-1,2,4-triazol-3-yl)methyl)piperidin-4-yl)-1H-indol-2-yl)-8-methyl-[1,2,4]triazolo[4,3-a]pyridine] | 3.9 | 4670 | 10.1 |
